Experimental data published in US20090131513A1, “ANTI-INFLAMMATORY MODALITIES” (Novogen Research Pty Ltd., priority 2005, published 2009).

What was measured:
[1] = test system: inflammed rat air pouches (serum-treated zymozan); assay: Rat air pouch assay; format: in vivo, rats (Dark Agouti); conditions: 0.5 ml of 100 μM into pouch; for Leucocytes in lavage fluid (×10^−7): lavage at 4 h
Procedure: An alternative assay used to measure anti-inflammatory efficacy is the air pouch model which involves the repeated subcutaneous injection of air into the dorsum of rats followed 24 h later by the intrapouch injection of an inflammatory stimulus (Gilroy et al. 1998).
Air pouches were raised on the dorsum of female Dark Agouti rats, approximately 7 weeks of age. To promote the formation of a cellular membrane lining the inside of each pouch, the pouches were maintained by re-inflating on days 2 and 5 after the initial injection of air. On re-inflation, the pouch was first deflated to ensure the needle was positioned correctly, before being re-inflated with 2 mL of sterile air. Using this protocol, the pouches remained inflated until use on day 7, when they were injected with 0.5 ml of either test compound at 100 μM or vehicle control. After 15 min, air pouches were injected with serum-treated zymozan (STZ-500 μg). Lavage of the air pouch (4×2 ml lavages) was performed at 4 h and leucocytes counted, after which the rats were killed, the air pouch excised and processed in formalin for histology. The sections were blinded to the person counting. Using a graticule with 100 squares and the 40× objective, the number of polymorphs were counted in the pouch lining at 10 different and non-adjacent sites. Group sizes were 5-6 rats. Data were analysed for statistical significance within each experiment and using an unpaired t test.

[2] = test system: NO synthesis in mouse macrophage cell line RAW 264.7; assay: Inhibition of nitric oxide synthesis (Griess reaction); format: cell-based; conditions: 10 μM
Procedure: Exposure of various cells (e.g. macrophages and smooth muscle cells) to bacterial LPS and proinflammatory cytokines induces iNOS which generates NO. NO production can be indirectly quantified by measurement of nitrite (NO2—), a stable breakdown product of NO. The mouse macrophage cell line RAW 264.7 was cultured in DMEM supplemented with FCS, 2 mM glutamine and 50 U/ml penicillin/streptomycin. Cells were treated with either test compound at 10 μM (in 0.125% DMSO) or vehicle alone, together with 10 ng/ml LPS. After incubation for 24 hrs, culture media was collected and analysed immediately for NO concentration using the Griess reaction (Eigler et al. 1995).

[3] = test system: UV irradiation-induced skin oedema; assay: Murine model of UV irradiation-induced skin oedema; format: in vivo, mice (Skh:hr-1 albino); conditions: for Increase in skin thickness (mean ± SD, ×0.01 mm): topical 0.2 ml of 20 μM at 30 min, 2 h, 4 h
Text: Groups of 4-5 female Skh:hr-1 albino mice were irradiated with 1×3 MEdD (minimal edematous dose) of solar simulated UV radiation (SSUV). Solar-simulated ultraviolet radiation (SSUV) was provided by a planar bank of 6 UVA tube (Hitachi 40 W F40 T 10/BL, black light) and one UVB tube (Philips TL 40 W/12 RS) with radiation filtered through a sheet of 0.125 mm cellulose acetate (Eastman Chemical Products, Kingport, Term, USA) to give 2.96×10-4 W/cm2 UVA and 1.59×10-5 W/cm2 UVB. During irradiation, the cages were rotated below the lights to reduce the variation in radiation intensity in different positions.
Either test compound (0.2 ml of a 20 μM solution) or vehicle (propylene glycol/ethanol/water 1:2:1) was applied to the irradiated dorsal skin at 30 min, 2 h and 4 h post-irradiation. Dorsal skin fold measurements were made with a spring micrometer prior to and at 24 hr and 48 h post-UV exposure. The difference in skin thickness pre- and post-exposure to UVR was calculated for each mouse, and the differences examined between test compound and vehicle control were analysed using an unpaired two-tailed t test.

DSS-induced colitis = assay: Murine model of DSS-induced colitis; format: in vivo, mice (BALB/c); conditions: for ulceration of the posterior colon (mice affected): vehicle 3/8; for mean clinical score versus vehicle: Experiment 3, 11 (p=0.0252); for colonic inflammation, in words: series of experiments, 1.0-1.25 mg/kg single oral dose per day
Procedure: Female BALB/c mice, 6-7 weeks old, were housed for a minimum of one week before any experimental work began. To induce colitis, dextran sulphate sodium (DSS—molecular weight 40 kD, TdB Consultancy AB, Uppsala, Sweden (Dieleman et al. 1994), was administered fresh daily in the drinking water at a concentration of 4.5-5% for 5 days (Okayasu et al. 1990), after which water alone was given. This regime induced mild colitis, evidenced by diarrhea and rectal bleeding, the severity of which was scored, as well as a reduction in the length of the colon. Histologically, colonic inflammation was evidenced by ulceration and an infiltration of neutrophils into the mucosa, which was also scored. The systemic effect of the colitis causes weight loss, which was also monitored.
Either vehicle (PEG 400:PBS1:1) Compounds 1 or 4 were administered at a dose rate of 1 mg/kg throughout the experiment until the mice were killed at day 17.
Either Compounds 1 and 2, at a dose of 1 mg/kg or vehicle were administered for 10 days prior to DSS being added to the drinking water to induce colitis, after which test compound was stopped. DSS was administered for 5 days and the mice killed 8 days later (day 23).
Either the cis or the trans isomers of Compound 3 (Compound 3a and 3b respectively) at 1.25 mg/kg or vehicle were administered throughout the experiment until the mice were killed at day 17.

[4] = test system: AA-induced ear inflammation; assay: Murine ear inflammation induced by arachidonic acid; format: in vivo, mice (BALB/c); conditions: for Increase in ear thickness (mean ± SD, ×0.01 mm): 25 mg/kg i/p, 1 hr post-AA application; for AA-induced ear inflammation / ear thickness compared with vehicle, in words: mouse, in vivo
Text: Compounds were examined for their ability to inhibit ear swelling in mice induced by the topical application of arachidonic acid (AA). The inflammatory response due AA, the immediate precursor of the eicosanoids, is due to formation of AA metabolites via both the cyclooxygenase (COX) and lipoxygenase (LOX) pathways (Young et al. 1984). AA induces an increase in both PGE2 and LTC4 synthesis which precedes the increase in ear thickness (Opas et al. 1985; Chang et al. 1986).
Female BALB/c mice (ARC, WA, Australia), weighing 15-21 g were injected with Compound 2 delivered in polyethylene glycol (PEG) 400:phosphate buffered saline (PBS) 1:1 intraperitoneally (i/p) at a dose of 25 mg/kg either 30 min prior to or immediately before the application of AA to the ears. Mice were anaesthetized using isoflurane and baseline thickness of both ears was measured using a spring micrometer. Each mouse received a total of 20 μL of AA in ethanol (50 mg/ml) applied to the inner and outer surfaces of each pinna (i.e. 0.5 mg AA per ear). Mice were anaesthetized again to remeasure the ears at 1 hr post-AA application.
The difference in ear swelling pre- and post-application of AA for each ear was calculated, and the average for the two ears of each mouse calculated. The difference in mean swelling of each test group compared to the group given vehicle alone was calculated using a two-tailed unpaired t test (Prism 4, GraphPad Software).

NFκB promoter activity = assay: Inhibition of NFκB promoter activity (β-lactamase reporter) in TNFα-stimulated THP-1 cells; format: cell-based, human; conditions: 5 h
Procedure: Human macrophage THP-1 cells, modified to include the β-lactamase reporter gene, were seeded into wells of a 96-well plate (50×10^3 cells/well) in the presence of RPMI 1640 medium (70 μl). TNFα (7.5 ng/ml) and human sera (final concentration of 20%) were added to each well. Plates were incubated for 5 h at 37° C. to allow for NFkB-stimulated β-lactamase production. LiveBLAzer™ FRET B/G Substrate (CCF4-AM) was then added to assay for β-lactamase activity. Once CCFA-AM enters a cell, it is converted to negatively charged CCF4 by endogenous esterases. Excitation of this substrate at 409 nm leads to efficient FRET between the coumarin and fluorescein moieties, resulting in a green fluorescence detectable at 530 nm. The presence of β-lactamase leads to cleavage of CCF4 and results in a loss of FRET, resulting in a robust blue fluorescent signal detectable at 460 nm. Thus, activity of beta-lactamase (a marker of NFkB-promoter activity) is measured as a product to substrate ratio (blue/green fluorescence ratio: 460 nm/530 nm).

TX synthase (TXS) = target: T1, TX synthase (TXS) (Homo sapiens, UniProt P24557); assay: TXB2 synthesis following addition of exogenous PGH2 to U937 cells; format: cell-based; conditions: 1, 10, 100 μM, undifferentiated U937 cells, PGH2 5 μM
T1 construct: endogenous in cells; host or cells: undifferentiated U937 cells
T1 sequence (P24557 1-533): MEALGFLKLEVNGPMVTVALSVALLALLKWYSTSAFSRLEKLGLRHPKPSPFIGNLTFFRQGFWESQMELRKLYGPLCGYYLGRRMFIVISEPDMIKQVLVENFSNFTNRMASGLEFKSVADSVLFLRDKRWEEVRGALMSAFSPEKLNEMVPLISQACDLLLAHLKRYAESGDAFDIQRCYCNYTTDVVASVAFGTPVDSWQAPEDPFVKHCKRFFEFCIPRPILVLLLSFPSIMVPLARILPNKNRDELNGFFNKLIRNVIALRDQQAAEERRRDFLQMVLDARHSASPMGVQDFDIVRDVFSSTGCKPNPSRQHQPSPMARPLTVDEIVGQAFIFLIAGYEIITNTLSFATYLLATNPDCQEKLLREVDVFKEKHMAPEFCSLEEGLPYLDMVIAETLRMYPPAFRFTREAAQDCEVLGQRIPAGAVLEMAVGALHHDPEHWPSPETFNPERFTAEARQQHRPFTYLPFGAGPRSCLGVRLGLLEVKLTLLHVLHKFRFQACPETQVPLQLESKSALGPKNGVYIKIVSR
Procedure: To examine effects of test compounds directly on TX synthase (TXS), a different assay system was used. Whereas arachidonic acid (AA) is the substrate for COX, PGH2 is the substrate for TX synthase. To examine directly the effect of these compounds on TXS, exogenous ? elow:
Test compounds at 0 μM, 1 μM, 10 μM and 100 μM (in DMSO) were incubated with undifferentiated U937 cells (6×10^6/ml) for 30 min at 37° C., after which PGH2 (5 μM) was added. After incubation for 10 min, the reaction was terminated by centrifugation and the supernatants were collected and TXB2 production was measured in triplicate by RIA. ANOVA followed by Newman-Keuls multiple comparisons test was used to examine differences between doses and the control values. A statistical significance level of 0.05 was used and differences from control values are indicated by an asterisk (*).

[5] = test system: inflammed rat air pouches (serum-treated zymozan); assay: Rat air pouch assay; format: in vivo, rats (Dark Agouti); conditions: At 1 mM application

Compound	Leucocytes in lavage fluid (×10^−7) [1]	NO synthesis, direction of effect in words [2]	Increase in skin thickness (mean ± SD, ×0.01 mm) ([3]; 24 hrs post-irradiation)	Increase in skin thickness (mean ± SD, ×0.01 mm) ([3]; 48 hrs post-irradiation)	ulceration of the posterior colon (mice affected) (DSS-induced colitis; Experiment 3, 1.25 mg/kg)	mean clinical score versus vehicle (DSS-induced colitis; days 8 (p=0.0055), 9 (p=0.0057), 17 (p=0.0177))	colonic inflammation, in words (DSS-induced colitis)	Increase in ear thickness (mean ± SD, ×0.01 mm) [4]	AA-induced ear inflammation / ear thickness compared with vehicle, in words [4]	inhibition of NFκB compared to vehicle control (NFκB promoter activity)	thromboxane synthase inhibition (TXB2 synthesis after exogenous PGH2), selectivity in words (TX synthase (TXS))	Polymorphs in tissue sections (per 100 squares) ([1]; 4 h)	number of polymorphs in the tissue sections, in words [5]	UV-induced inflammation / skin oedema, in words ([3]; both time points (24 and 48 hrs), topical)	colon length versus vehicle (DSS-induced colitis; Experiment 3, 1.25 mg/kg)	day of switch from mean body weight loss to mean body weight gain (DSS-induced colitis; Experiment 3, 1.25 mg/kg)	degree of mucosal damage versus vehicle (DSS-induced colitis; Experiment 3, 1.25 mg/kg)	colonic inflammation and its resolution, in words (DSS-induced colitis; Experiment 3, 1.25 mg/kg throughout until day 17)	maximum mean weight loss (DSS-induced colitis; Experiment 3, 1.25 mg/kg, vehicle nearly 5%)	mean clinical score versus vehicle (DSS-induced colitis; days 8 (p=0.0078), 9 (p=0.0326), 10 (p=0.0386), 15 (p=0.0033), 16 (p=0.0016))
Cc1c(O)ccc2c1OCC(c1ccc(O)cc1)C2O (single isomer, unassigned) [Compound 3b]	0.66 ± 0.23 ×10^−7	inhibited NO synthesis	56 ± 14 ×0.01 mm	113 ± 25 ×0.01 mm	1/8	significantly lower	reduced colonic inflammation	7.1 ± 3.0 ×0.01 mm	significant reduction in ear thickness											
Cc1cc(O)cc2c1C(=O)C(c1ccc(O)cc1)CO2 (stereo not shown) [Compound 5]										significantly (p<0.001) inhibited	selective thromboxane synthase inhibitors									
Cc1c(O)ccc2c1OCC(c1ccc(O)cc1)C2O (single isomer, unassigned) [Compound 3a]	0.47 ± 0.4 ×10^−7	inhibited NO synthesis	32 ± 18 ×0.01 mm	69 ± 24 ×0.01 mm	not observed		reduced colonic inflammation	6.7 ± 2.1 ×0.01 mm	significant reduction in ear thickness			17.9 ± 14.2 per 100 squares	suppressed the number of polymorphs	significantly inhibited skin oedema	significantly longer (p=0.039)	4 days	significantly lower (p=0.018)	reduced colonic inflammation and hastened its resolution	less than 2%	significantly lower
